Legend:
[1] = test system: phosphorylation of p38 MAPK or of HSP27; assay: Downstream phosphorylation of p38 MAPK and HSP27 in cells (Western blot); format: cell-based, human; conditions: PC3-M cells, 50 μM, 24 hours, then TGFβ
Experimental: FIG. 16a is a depiction of established MKK4 pathway regulating human PCa cell metastasis. […] Values are the mean±SD (of N=2 replicates) increase in melting temperature (ΔTm) of purified recombinant MKK4 induced by the indicated concentrations of KBU2046 or genistein. […] The indicated concentrations of KBU2046 were added to recombinant activated MKK4, and its ability to phosphorylate kinase dead p38a MAPK (K53A) was measured by Western blot for total (p38 MAPK) and phosphorylated (pp38 MAPK) forms of p38 MAPK. […] PC3-M cells were pre-treated for 24 hours with 50 μM KBU2046 or genistein, as indicated, then with TGFβ, and Western blot performed. These findings are from a single experiment, with similar findings in identical separate experiments, repeated at least once.

estrogen receptor (ER) = target: T1, estrogen receptor (ER) (Homo sapiens, UniProt P03372); assay: pERE-Luc estrogen receptor reporter assay in MCF-7 cells; format: cell-based; conditions: 24 hours, micromolar concentrations
T1 construct: estrogen receptor positive MCF-7 cells; endogenous in cells; host or cells: MCF-7
T1 sequence (P03372 whole entry): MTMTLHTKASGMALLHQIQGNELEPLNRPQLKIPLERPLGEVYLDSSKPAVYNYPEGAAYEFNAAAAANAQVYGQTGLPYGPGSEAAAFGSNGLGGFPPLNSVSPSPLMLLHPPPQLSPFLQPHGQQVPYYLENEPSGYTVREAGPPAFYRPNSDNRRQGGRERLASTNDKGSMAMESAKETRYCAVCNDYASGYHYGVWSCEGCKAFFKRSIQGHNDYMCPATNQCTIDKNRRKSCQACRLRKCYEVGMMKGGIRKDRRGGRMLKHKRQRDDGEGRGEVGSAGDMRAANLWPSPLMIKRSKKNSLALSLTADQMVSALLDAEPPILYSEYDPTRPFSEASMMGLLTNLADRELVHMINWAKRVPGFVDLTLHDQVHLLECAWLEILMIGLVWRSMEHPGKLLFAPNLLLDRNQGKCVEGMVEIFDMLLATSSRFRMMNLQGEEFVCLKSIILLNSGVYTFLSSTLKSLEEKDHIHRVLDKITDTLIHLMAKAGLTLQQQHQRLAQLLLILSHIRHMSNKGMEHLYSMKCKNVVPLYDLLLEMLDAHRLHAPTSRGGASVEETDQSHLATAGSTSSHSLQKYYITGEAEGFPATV
Description: Values are the mean±SD of a single experiment, with similar results seen in a separate repeat experiment, both in replicates of N=2.
Constructs, Transfection, and Luciferase Assays. Constructs were purchased or gifts: constitutive active MEK4EE (MAP2K4-EE; residues 37-399; Addgene, plasmid 14813), pRL-TK-Renilla luciferase (Promega), pCMV-β-galactosidase (Agilent Technologies), and pcDNA-GFP (Invitrogen), HSP90β was from Pawel Bieganowski (Mossakowski Medical Research Center PAS, Poland) (Zurawska, A. et al., Biochim Biophys Acta 1803, 575-83 (2010)), estrogen responsive promoter-luciferase reporter construct, pERE-Luc, was from Craig Jordan (Georgetown University) (Catherino, W. H. et al., Cancer Lett 92, 39-47 (1995)), human CDC37 in pET15b plasmid was from Avrom Caplan (City College of New York) (Rao, J. et al., J Biol Chem 276, 5814-20 (2001)). siRNA used Dharmacon ON-Targetplus SMARTpool™ siRNA directed against HSP90β (cat #L-005187-00-0010) non-targeting siRNA (cat #D-001810-10-05), used TransIT-LT1 Transfection Reagent (Mirus Bio LLC), or with Dharmafect Duo (Thermo Scientific, Lafayette, Colo.) for co-delivery of plasmid. Luciferase assays were performed as described (Breen, M. J. et al., PLoS One 8, e72407 (2013)).
Luciferase activity was measured, normalized to that of β-gal, and values expressed as the percent of untreated vector control cells.

PC3 or PC3M cells = assay: Scratch wound healing assay with siRNA knockdown; format: cell-based, human
Experimental: HEK293T cells were transfected with 1 of 420 different protein kinases, treated with 10 μM KBU2046 (N=5 replicates) or vehicle control (N=5) for three days, and LUMIER assays performed. The N=17 kinases that gave significant findings (Student's t-test <0.05) in the same direction in each of two separate experiments are depicted. Each separate treatment and kinase condition in each of two separate experiments was conducted in replicates of N=5. […] FIGS. 6c and 6d show the results of the wound healing assay. PC3 cells were transfected with siRNA targeting RAF1 (si-Raf1) or non-targeting siRNA (si-control), treated with KBU2046 or vehicle as above, and RAF1 protein measured by Western blot (c) and effects upon wound healing measured (d). […] Purified recombinant HSP90β, CDC37, and RAF1 were combined with KBU2046, as indicated, incubated in an in vitro kinase assay for the indicated times, and Western blot for RAF1-Ser^338 phosphorylation performed. FIGS. 6f and 6g show the effect on HSP90β/CDC37 heterocomplex formation and function in vitro. Purified recombinant HSP90β, CDC37, RAF1, SGK3 or MAP3K6 were combined and treated with KBU2046 or vehicle control, as indicated, incubated in an in vitro kinase assay for the indicated times, and Western blot performed, as denoted. Experiments were repeated at separate times at least once, with similar results.
FIGS. 24b-d show the results of the wound healing assay. PC3 or PC3M cells were treated+/−KBU2046 and with siRNA to the denoted gene, or with non-targeting control siRNA (NT), and effects upon transcript (b) or protein expression (c) measured by qRT/PCR or Western blot, respectively. For qRT/PCR, values are expressed as the target gene/GAPDH ratio, normalized to that of NT/−KBU2046 cells. Under the same conditions, wound healing assays were performed (d).
Scratch Wound Assays. Cells were transfected with the indicated si-RNA constructs per manufacture protocol (GE-Dharmacon), cultured 48 hrs with 10 μM KBU2046 or vehicle, and scratch wound assay performed as described (Xiao, X. et al., Oncotarget 6, 3225-39 (2015)). […]

SMILES: O=C1c2ccccc2OCC1c1ccc(F)cc1 (racemic) [KBU2046, (±)-3(4-fluorophenyl)chroman-4-one]
- inhibition of downstream phosphorylation of p38 MAPK or HSP27 [1]: did not inhibit downstream phosphorylation of p38 MAPK or of HSP27
- activation of the estrogen receptor (estrogen receptor (ER)): does not activate the estrogen receptor (ER)
- efficacy on motility (PC3 or PC3M cells; SGK3 knockdown): still retained efficacy
- RAF1 protein expression levels (PC3 or PC3M cells; Western blot, cells): did not alter RAF1 protein expression levels
- efficacy on motility (PC3 or PC3M cells; knockdown of RAF1 or of RIPK1): mitigated KBU2046 efficacy
